Read-outs that look alike come from different tables or passages of the source.
What was measured:
Format in all cases: cell-based, human
[1] = tested on: SN12C (renal); assay: NCI anticancer screen, SRB assay, 48 h; settings: Homo sapiens, SN12C
Summary of the method: (§1)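 Compounds were tested across fifty three human cancer cell lines from nine tumour types. Each line got a dose-response curve of at least five concentrations at 10-fold dilutions, with continuous drug exposure and sulforhodamine B protein staining to estimate viability or growth.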

[2] = tested on: NCI-H460 (non-small cell lung); assay: NCI anticancer screen, SRB assay, 48 h; settings: Homo sapiens
Summary of the method: as §1

[3] = tested on: MDA-MB-435 (melanoma); assay: NCI anticancer screen, SRB assay, 48 h; settings: Homo sapiens
Summary of the method: as §1

[4] = tested on: HCT-15 (colon); assay: NCI anticancer screen, SRB assay, 48 h; settings: Homo sapiens
Summary of the method: as §1

[5] = tested on: MCF7 (breast); assay: NCI anticancer screen, SRB assay, 48 h; settings: Homo sapiens
Summary of the method: as §1

[6] = tested on: SF-539 (CNS); assay: NCI anticancer screen, SRB assay, 48 h; settings: Homo sapiens
Summary of the method: as §1

[7] = tested on: SF-295 (CNS); assay: NCI anticancer screen, SRB assay, 48 h; settings: Homo sapiens
Summary of the method: as §1

[8] = tested on: U251 (CNS); assay: NCI anticancer screen, SRB assay, 48 h; settings: Homo sapiens
Summary of the method: as §1

[9] = tested on: 786-0 (renal); assay: NCI anticancer screen, SRB assay, 48 h; settings: Homo sapiens
Summary of the method: as §1

[10] = tested on: LOX IMVI (melanoma); assay: NCI anticancer screen, SRB assay, 48 h; settings: Homo sapiens
Summary of the method: as §1

[11] = tested on: HOP-92 (non-small cell lung); assay: NCI anticancer screen, SRB assay, 48 h; settings: Homo sapiens
Summary of the method: as §1

[12] = tested on: PC-3 (prostate); assay: NCI anticancer screen, SRB assay, 48 h; settings: Homo sapiens
Summary of the method: as §1

[13] = tested on: K-562 (leukemia cell line); assay: NCI anticancer screen, SRB assay, 48 h; settings: Homo sapiens
Summary of the method: as §1

[14] = tested on: A498 (renal); assay: NCI anticancer screen, SRB assay, 48 h; settings: Homo sapiens
Summary of the method: as §1

[15] = tested on: BT-549 (breast); assay: NCI anticancer screen, SRB assay, 48 h; settings: Homo sapiens
Summary of the method: as §1

[16] = tested on: HS 578T (breast); assay: NCI anticancer screen, SRB assay, 48 h; settings: Homo sapiens
Summary of the method: as §1

[17] = tested on: HCC-2998 (colon); assay: NCI anticancer screen, SRB assay, 48 h; settings: Homo sapiens
Summary of the method: as §1

[18] = tested on: SK-MEL-5 (melanoma); assay: NCI anticancer screen, SRB assay, 48 h; settings: Homo sapiens
Summary of the method: as §1

[19] = tested on: SW-620 (colon); assay: NCI anticancer screen, SRB assay, 48 h; settings: Homo sapiens
Summary of the method: as §1

[20] = tested on: MDA-MB-231/ATCC (breast); assay: NCI anticancer screen, SRB assay, 48 h; settings: Homo sapiens
Summary of the method: as §1

[21] = tested on: SF-268 (CNS); assay: NCI anticancer screen, SRB assay, 48 h; settings: Homo sapiens
Summary of the method: as §1

[22] = tested on: OVCAR-5 (ovarian); assay: NCI anticancer screen, SRB assay, 48 h; settings: Homo sapiens
Summary of the method: as §1

[23] = tested on: TK-10 (renal); assay: NCI anticancer screen, SRB assay, 48 h; settings: Homo sapiens
Summary of the method: as §1

[24] = tested on: Ovarian cancer cell lines; assay: NCI anticancer screen, SRB assay, panel summary; settings: Homo sapiens
Summary of the method: as §1

[25] = tested on: Breast cancer cell lines; assay: NCI anticancer screen, SRB assay, panel summary; settings: Homo sapiens
Summary of the method: as §1

[26] = tested on: Melanoma cancer cell lines; assay: NCI anticancer screen, SRB assay, panel summary; settings: for GI50: Homo sapiens
Summary of the method: as §1

[27] = tested on: Prostate cancer cell lines; assay: NCI anticancer screen, SRB assay, panel summary
Summary of the method: as §1

[28] = tested on: Colon cancer cell lines; assay: NCI anticancer screen, SRB assay, panel summary; settings: for GI50: Homo sapiens
Summary of the method: as §1

[29] = tested on: Non-small cell lung cancer cell lines; assay: NCI anticancer screen, SRB assay, panel summary; settings: Homo sapiens
Summary of the method: as §1

[30] = tested on: Leukemia cancer cell lines; assay: NCI anticancer screen, SRB assay, panel summary; settings: Homo sapiens
Summary of the method: as §1

[31] = tested on: Renal cancer cell lines; assay: NCI anticancer screen, SRB assay, panel summary; settings: Homo sapiens
Summary of the method: as §1

[32] = tested on: CNS cancer cell lines; assay: NCI anticancer screen, SRB assay, panel summary; settings: for GI50: Homo sapiens
Summary of the method: as §1

[33] = 48 h exposure, SRB, read-out: GI50
[34] = read-out: pGI50 (-log of molar concentration causing 50% inhibition of net cell growth) (converted)

## COc1cc(/C=C/C(=O)c2cccc(-n3cc(-c4ccccc4)[nH]c3=O)c2)ccc1O [3a, 1-3-[(E)-3-(4-hydroxy-3-methoxyphenyl)-2-propenoyl]phenyl-4-phenyl-2,3-dihydro-1H-2-imidazolone]
[1]; SN 12C, read-out: pGI50 (-log of molar concentration causing 50% inhibition of net cell growth) (converted)
  GI50: 3.31 µM
[1]; [33]
  GI50: 3.31 µM
[2]; [33]
  GI50: 1.95 µM
[2]; [34]
  GI50: 1.95 µM
[3]; [33]
  GI50: 2.14 µM
[3]; [34]
  GI50: 2.14 µM
[4]; [33]
  GI50: 2.73 µM
[4]; [34]
  GI50: 2.75 µM
[5]; [33]
  GI50: 1.55 µM
[5]; [34]
  GI50: 1.55 µM
[6]; [33]
  GI50: 1.91 µM
[6]; [34]
  GI50: 1.91 µM
[7]; [33]
  GI50: 3.04 µM
[7]; [34]
  GI50: 3.02 µM
[8]; U-251, 48 h exposure, SRB, read-out: GI50
  GI50: 2.11 µM
[8]; U-251, read-out: pGI50 (-log of molar concentration causing 50% inhibition of net cell growth) (converted)
  GI50: 2.09 µM
[9]; [33]
  GI50: 1.35 µM
[9]; [34]
  GI50: 1.35 µM
[10]; [33]
  GI50: 1.88 µM
[10]; [34]
  GI50: 1.86 µM
[11]; [33]
  GI50: 2.27 µM
[11]; [34]
  GI50: 2.29 µM
[12]; PC-3, read-out: pGI50 (-log of molar concentration causing 50% inhibition of net cell growth) (converted)
  GI50: 2.51 µM
[12]; one prostate cancer cell line (PC-3), exposure at least 48 hrs, read-out: GI50
  GI50: 2.52 µM
[13]; K562, 48 h exposure, SRB, read-out: GI50
  GI50: 2.04 µM
[13]; K562, read-out: pGI50 (-log of molar concentration causing 50% inhibition of net cell growth) (converted)
  GI50: 2.04 µM
[14]; [33]
  GI50: 1.68 µM
[14]; [34]
  GI50: 1.7 µM
[15]; [33]
  GI50: 2.78 µM
[15]; [34]
  GI50: 2.75 µM
[16]; [33]
  GI50: 4.16 µM
[16]; [34]
  GI50: 4.17 µM
[17]; [33]
  GI50: 1.51 µM
[17]; [34]
  GI50: 1.51 µM
[18]; [33]
  GI50: 1.59 µM
[18]; [34]
  GI50: 1.58 µM
[19]; [33]
  GI50: 2.29 µM
[19]; [34]
  GI50: 2.29 µM
[20]; [33]
  GI50: 3.36 µM
[20]; [34]
  GI50: 3.39 µM
[21]; [33]
  GI50: 2.07 µM
[21]; [34]
  GI50: 2.09 µM
[22]; [33]
  GI50: 2.04 µM
[22]; [34]
  GI50: 2.04 µM
[23]; [33]
  GI50: 5.29 µM
[23]; [34]
  GI50: 5.25 µM
[24]; Ovarian panel, log of concentration in mol/L causing 50% inhibition of net cell growth, read-out: mean graph midpoint (MG_MID) of Log10 GI50 (converted)
  GI50: 3.24 µM
[24]; Ovarian panel, log of concentration leading to 50% net cell death, read-out: mean graph midpoint (MG_MID) of Log10 LC50 (converted)
  LC50: 11.7 µM
[24]; six ovarian cancer cell lines, exposure at least 48 hrs, read-out: GI50, range over the panel
  GI50: 2.04 to 5.19 µM
[25]; Breast panel, log of concentration in mol/L causing 50% inhibition of net cell growth, read-out: mean graph midpoint (MG_MID) of Log10 GI50 (converted)
  GI50: 2.82 µM
[25]; Breast panel, log of concentration leading to 50% net cell death, read-out: mean graph midpoint (MG_MID) of Log10 LC50 (converted)
  LC50: 53.7 µM
[25]; five breast cancer cell lines, exposure at least 48 hrs, read-out: GI50, range over the panel
  GI50: 1.55 to 4.16 µM
[26]; Melanoma panel, log of concentration in mol/L causing 50% inhibition of net cell growth, read-out: mean graph midpoint (MG_MID) of Log10 GI50 (converted)
  GI50: 2.57 µM
[26]; nine melanoma cancer cell lines, exposure at least 48 hrs, read-out: GI50, range over the panel
  GI50: 1.59 to 6.81 µM
[26]; Melanoma panel, log of concentration leading to 50% net cell death
  mean graph midpoint (MG_MID) of Log10 LC50: 4.06
[27]; Homo sapiens, log of concentration in mol/L causing 50% inhibition of net cell growth, read-out: mean graph midpoint (MG_MID) of Log10 GI50 (converted)
  GI50: 2.51 µM
[27]; Homo sapiens, log of concentration leading to 50% net cell death, read-out: mean graph midpoint (MG_MID) of Log10 LC50 (converted)
  LC50: ≥ 100 µM
[27]; log of concentration resulting in total inhibition of net cell growth
  mean graph midpoint (MG_MID) of Log10 TGI: 5.13
[28]; Colon panel, log of concentration leading to 50% net cell death
  mean graph midpoint (MG_MID) of Log10 LC50: 4.68
[28]; Colon panel, log of concentration in mol/L causing 50% inhibition of net cell growth, read-out: mean graph midpoint (MG_MID) of Log10 GI50 (converted)
  GI50: 2.14 µM
[28]; seven colon cancer cell lines, exposure at least 48 hrs, read-out: GI50, range over the panel
  GI50: 1.4 to 3.77 µM
[29]; Non-small cell lung panel, log of concentration in mol/L causing 50% inhibition of net cell growth, read-out: mean graph midpoint (MG_MID) of Log10 GI50 (converted)
  GI50: 2.57 µM
[29]; Non-small cell lung panel, log of concentration leading to 50% net cell death, read-out: mean graph midpoint (MG_MID) of Log10 LC50 (converted)
  LC50: 41.7 µM
[29]; nine non-small cell lung cancer cell lines, exposure at least 48 hrs, read-out: GI50, range over the panel
  GI50: 1.48 to 3.9 µM
[30]; Leukemia panel, log of concentration in mol/L causing 50% inhibition of net cell growth, read-out: mean graph midpoint (MG_MID) of Log10 GI50 (converted)
  GI50: 1.86 µM
[30]; Leukemia panel, log of concentration leading to 50% net cell death, read-out: mean graph midpoint (MG_MID) of Log10 LC50 (converted)
  LC50: 66.1 µM
[30]; two leukemia cancer cell lines (RPMI-8226 and K-562), exposure at least 48 hrs, read-out: GI50, range over the panel
  GI50: 1.67 to 2.04 µM
[31]; Renal panel, log of concentration in mol/L causing 50% inhibition of net cell growth, read-out: mean graph midpoint (MG_MID) of Log10 GI50 (converted)
  GI50: 2.4 µM
[31]; Renal panel, log of concentration leading to 50% net cell death, read-out: mean graph midpoint (MG_MID) of Log10 LC50 (converted)
  LC50: 34.7 µM
[31]; eight renal cancer cell lines, exposure at least 48 hrs, read-out: GI50, range over the panel
  GI50: 1.35 to 5.29 µM
[32]; CNS panel, log of concentration leading to 50% net cell death
  mean graph midpoint (MG_MID) of Log10 LC50: 4.62
[32]; CNS panel, log of concentration in mol/L causing 50% inhibition of net cell growth, read-out: mean graph midpoint (MG_MID) of Log10 GI50 (converted)
  GI50: 2.57 µM
[32]; six CNS cancer cell lines, exposure at least 48 hrs, read-out: GI50, range over the panel
  GI50: 1.91 to 3.9 µM
